Measurements: patent publication US6337417B1, “N-phenyltetrahydrophthalamic acid derivatives, methods of producing same, and herbicides containing same as effective components” (Central Glass Co., Ltd., priority 1994, dated 2002)

Columns and labels:
Type in all cases: in vivo
Set-up in all cases: key: 5: completely killed; 4: seriously injured; 3: considerably injured; 2: somewhat injured; 1: slightly injured; 0: not injured (normally grown)
Details in all cases: 4 weeks after treatment
[1] = system: hotarui (bulrush, Scirpus juncoides); experiment: Experiment 1 flooded soil treatment: hotarui
Excerpt: (§1) Paddy soil (clay loam) was put into a pot so as to have a surface area of 1/15500 ares. Uniformly mixed seeds of several kinds of weeds, viz., nobie (barnyardgrass, Echinochloa spp.), broad-leaved weeds, hotarui (bulrush, Scirpus juncoides) and tamagayatsuri (small-flowered umbrellaplant, Cyperus difformis), were sown in the surface layer of the soil in each pot, and then paddy rice seedlings at the two- or three-leaved stage were transplanted into each pot to a depth of 2 cm, and water was fed into each pot so as to provide a 3 cm deep water layer on the soil surface. After 3 days, in other words at the initial stage of germination of nobie (barnyardgrass, Echinochloa spp.), a predetermined amount of a selected compound obtained in a manner analogous to Example 8 in the form of diluted aqueous solution was dropped into the water layer in each pot. After that, the pots were kept in a glass chamber to allow the paddy rice and the weeds to grow, and after the lapse of 4 weeks from the treatment with the selected compounds, the herbicidal effects and the degree of injury to the paddy rice were evaluated. In the table, the herbicidal effects and the degree of injury to the paddy rice are indicated by numerical values, which have the following meaning.
(§2) 0: not injured (normally grown)

[2] = system: noasagao (blue morningglory, Ipomoea indica); experiment: Experiment 3 foliage treatment: noasagao
Protocol: (§3) Upon seedling stage (two- or three-leaved stage) of ichibi (velvetleaf, Abutilon theophrasti), onamomi (heartleaf cocklebur, Xanthium strumarium) (4L stage), noasagao (blue morningglory, Ipomoea indica) and ooinutade (pale smartweed, Persicaria lapathifolia) which were grown on a cultivated soil put in pots of 1/8850 ares, a selected compound obtained in a manner analogous to Example 8, in suspended wettable powder, was sprayed to each plant. After that, the pots were kept in a glass chamber to allow each plant to grow, and after the lapse of 4 weeks from the treatment with the selected compounds the herbicidal effects were evaluated. The evaluation of the herbicidal effects was similarly conducted as to that of Experiment 1.

[3] = system: nobie (barnyardgrass, Echinochloa spp.); experiment: Experiment 1 flooded soil treatment: nobie
Excerpt: as §1, §2

[4] = system: cockspur (Panicum crus-galli); experiment: Experiment 2 foliage treatment: cockspur
In short: (§4)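 Plants at the two- or three-leaved seedling stage, grown in cultivated soil in pots, were sprayed over the foliage with test compound as a suspended wettable powder. Pots were then held in a glass chamber for 4 weeks before herbicidal effect was scored, using the same evaluation as Experiment 1.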

broad-leaved weeds = experiment: Experiment 1 flooded soil treatment: broad-leaved weeds
Excerpt: as §1, §2

paddy rice = experiment: Experiment 1 flooded soil treatment: injury to paddy rice
Excerpt: as §1, §2

[5] = system: ooinutade (pale smartweed, Persicaria lapathifolia); experiment: Experiment 3 foliage treatment: ooinutade
Protocol: as §3

[6] = system: tamagayatsuri (small-flowered umbrellaplant, Cyperus difformis); experiment: Experiment 1 flooded soil treatment: tamagayatsuri
Excerpt: as §1, §2

rice = experiment: Experiment 2 foliage treatment: rice
In short: as §4

[7] = system: onamomi (heartleaf cocklebur, Xanthium strumarium); experiment: Experiment 3 foliage treatment: onamomi
Protocol: as §3

[8] = system: ichibi (velvetleaf, Abutilon theophrasti); experiment: Experiment 3 foliage treatment: ichibi
Protocol: as §3

garden radish = experiment: Experiment 2 foliage treatment: garden radish
In short: as §4

[9] = system: mehishiba (henry crabgrass, Digitaria cliaris); experiment: Experiment 2 foliage treatment: mehishiba
In short: as §4

[10] = system: aobiyu (slender amaranth, Amaranthus viridis); experiment: Experiment 2 foliage treatment: aobiyu
In short: as §4

## CCCOC(=O)C1=C(C(=O)N(C(C)=O)c2cc(SCC(=O)OC)c(Cl)cc2F)CCCC1 [compound 13]
[1]; 12.5 g/10a
  Herbicidal Effect hotarui: 4
[1]; 25 g/10a
  Herbicidal Effect hotarui: 4
[2]; 4 g/10a
  Herbicidal Effect noasagao: 5
[2]; 8 g/10a
  Herbicidal Effect noasagao: 5
[3]; 12.5 g/10a
  Herbicidal Effect nobie: 5
[3]; 25 g/10a
  Herbicidal Effect nobie: 5
[4]; 40 g/10a
  Herbicidal Effect cockspur: 2
[4]; 80 g/10a
  Herbicidal Effect cockspur: 2
broad-leaved weeds; 12.5 g/10a
  Herbicidal Effect broad-leaved weed: 5
broad-leaved weeds; 25 g/10a
  Herbicidal Effect broad-leaved weed: 5
Paddy rice; 12.5 g/10a
  Injury of Paddy: 0
Paddy rice; 25 g/10a
  Injury of Paddy: 0.5
[5]; 4 g/10a
  Herbicidal Effect ooinutade: 5
[5]; 8 g/10a
  Herbicidal Effect ooinutade: 5
[6]; 12.5 g/10a
  Herbicidal Effect tamagayatsuri: 5
[6]; 25 g/10a
  Herbicidal Effect tamagayatsuri: 5
rice; 40 g/10a
  Herbicidal Effect rice: 1
rice; 80 g/10a
  Herbicidal Effect rice: 1
[7]; 4 g/10a
  Herbicidal Effect onamomi: 5
[7]; 8 g/10a
  Herbicidal Effect onamomi: 5
[8]; 4 g/10a
  Herbicidal Effect ichibi: 5
[8]; 8 g/10a
  Herbicidal Effect ichibi: 5
Garden radish; 40 g/10a
  Herbicidal Effect garden radish: 5
Garden radish; 80 g/10a
  Herbicidal Effect garden radish: 5
[9]; 40 g/10a
  Herbicidal Effect mehishiba: 1
[9]; 80 g/10a
  Herbicidal Effect mehishiba: 1
[10]; 40 g/10a
  Herbicidal Effect aobiyu: 5
[10]; 80 g/10a
  Herbicidal Effect aobiyu: 5

## COC(=O)C1=C(C(=O)N(C(C)=O)c2cc(SC(C)C(=O)OC)c(Cl)cc2F)CCCC1 (centres unmarked) [compound 20, N-acetyl-N-[4-chloro-2-fluoro-5-(1-methoxycarbonylethylthio)phenyl]-3,4,5,6-tetrahydrophthalamic acid methyl ester]
[1]; 12.5 g/10a
  Herbicidal Effect hotarui: 5
[1]; 25 g/10a
  Herbicidal Effect hotarui: 5
[2]; 4 g/10a
  Herbicidal Effect noasagao: 4
[2]; 8 g/10a
  Herbicidal Effect noasagao: 5
[3]; 12.5 g/10a
  Herbicidal Effect nobie: 5
[3]; 25 g/10a
  Herbicidal Effect nobie: 5
[4]; 40 g/10a
  Herbicidal Effect cockspur: 2
[4]; 80 g/10a
  Herbicidal Effect cockspur: 2
broad-leaved weeds; 12.5 g/10a
  Herbicidal Effect broad-leaved weed: 5
broad-leaved weeds; 25 g/10a
  Herbicidal Effect broad-leaved weed: 5
Paddy rice; 12.5 g/10a
  Injury of Paddy: 0.5
Paddy rice; 25 g/10a
  Injury of Paddy: 0.5
[5]; 4 g/10a
  Herbicidal Effect ooinutade: 5
[5]; 8 g/10a
  Herbicidal Effect ooinutade: 5
[6]; 12.5 g/10a
  Herbicidal Effect tamagayatsuri: 5
[6]; 25 g/10a
  Herbicidal Effect tamagayatsuri: 5
rice; 40 g/10a
  Herbicidal Effect rice: 1
rice; 80 g/10a
  Herbicidal Effect rice: 1
[7]; 4 g/10a
  Herbicidal Effect onamomi: 4
[7]; 8 g/10a
  Herbicidal Effect onamomi: 4
[8]; 4 g/10a
  Herbicidal Effect ichibi: 5
[8]; 8 g/10a
  Herbicidal Effect ichibi: 5
Garden radish; 40 g/10a
  Herbicidal Effect garden radish: 5
Garden radish; 80 g/10a
  Herbicidal Effect garden radish: 5
[9]; 40 g/10a
  Herbicidal Effect mehishiba: 1
[9]; 80 g/10a
  Herbicidal Effect mehishiba: 1
[10]; 40 g/10a
  Herbicidal Effect aobiyu: 5
[10]; 80 g/10a
  Herbicidal Effect aobiyu: 5
